From patent US20240343694A1, “PYRIMIDINE DERIVATIVE, METHOD FOR PREPARING SAME, AND PHARMACEUTICAL COMPOSITION FOR PREVENTING OR TREATING CANCER COMPRISING SAME AS ACTIVE INGREDIENT” (KOREA RESERARCH INSTITUTE OF CHEMICAL TECHNOLOGY, priority 2021, published 2024)

Key:
EGFR del19 = EGFR del19 (Homo sapiens (Human), UniProt P00533, DEL746-750); experiment: HTRF inhibitory activity against EGFR mutant enzyme (EGFR del19); type: biochemical; conditions: recombinant enzyme, 37° C. for 2 hours
Procedure, shortened: (§1)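 Recombinant EGFR del19 or A763_Y764insFHEA was premixed with compound in 50 mM Tris pH 7.5 with 7.5 mM MgCl2 and 1 mM DTT. ATP (50 mM as printed) and biotin-peptide (0.5 mM) were added and reacted 2 h at 37 °C. The HTRF 665/615 read used streptavidin-XL665 and Eu anti-phosphotyrosine. IC50 was fitted from 7 concentrations.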

EGFR A763_Y764insFHEA = EGFR A763_Y764insFHEA (Homo sapiens (Human), UniProt P00533, INS763FHEA); experiment: HTRF inhibitory activity against EGFR mutant enzyme (EGFR A763_Y764insFHEA); type: biochemical; conditions: recombinant enzyme, 37° C. for 2 hours
Procedure, shortened: as §1

[1] = tested on: Ba/F3 EGFR D770_N771insSVD; experiment: Growth inhibition of Ba/F3 EGFR mutant cells (CellTiter-Glo); type: cell-based; conditions: Ba/F3 EGFR-D770-N771ins_SVD, 72 hours
Experimental: (§2) The activity of the compounds of the present invention against Ba/F3 EGFR V769_D770insASV and Ba/F3 EGFR D770_N771insSVD mutant cell lines was measured using the CellTiter-Glo system purchased from Promega as follows. CellTiter-Glo assay is a method to measure cell viability by monitoring ATP present in cells. Ba/F3 EGFR V769_D770insASV and Ba/F3 EGFR D770_N771insSVD mutant cell lines were purchased from Crown Biosciences. Ba/F3 EGFR V769_D770insASV and Ba/F3 EGFR D770_N771insSVD mutant cell lines were cultured in RPMI containing 10% FBS and 1% penicillin-streptomycin with 1 μg/mL of puromycin in a 5% CO2 incubator at 37° C.
(§3) The analysis of the ability of the compounds to inhibit the growth of EGFR mutant cells was performed according to the following method. 1,000 cells/100 μL were seeded in a 96-well cell culture plate, and 24 hours thereafter, the compounds represented by Formula 1 were treated with 0 μM, 0.01 μM, 0.03 μM, 0.1 μM, 0.3 μM, 1 μM, 3 μM, and 10 μM. After incubating for 72 hours, the plate treated with the compounds were left at room temperature for 30 minutes, 100 μL of a reagent was further added thereto, and then shaken at room temperature for 10 minutes. Finally, using equipment, the ratio of […] was measured to confirm the cell growth inhibition ability of the compounds. The measured values at 8 compound concentrations were analyzed using the Prism program (version 5.01, Graphpad Software, Inc.), and the IC50 (μM) values, which are measures of the compounds' inhibitory ability, were calculated.

[2] = tested on: Ba/F3 EGFR V769_D770insASV; experiment: as above; type: cell-based; conditions: 72 hours
Experimental: as §2, §3

HER2 A775_G776insYVMA = HER2 A775_G776insYVMA (Homo sapiens (Human), UniProt P04626, INS775YVMA); experiment: HTRF inhibitory activity against HER2 mutant enzyme; type: biochemical; conditions: recombinant enzyme, 37° C. for 2 hours
Procedure, shortened: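 Recombinant HER2 A775_G776insYVMA preincubated with compound, then […] and biotinylated peptide ([…]) added; 2 h at 37 °C in Tris-HCl pH 7.5 buffer with MgCl2, DTT. HTRF detection (Eu anti-phosphotyrosine/streptavidin-XL665); IC50 from 7 concentrations.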

Ba/F3 HER2 G776delinsVC = experiment: Growth inhibition of Ba/F3 HER2 mutant cells (CellTiter-Glo); type: cell-based; conditions: Mus musculus, BaF3, 72 hours
Procedure, shortened: (§4)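 Ba/F3 cells carrying HER2 A775_G776insYVMA or G776delinsVC were seeded at 1,000 cells/well and dosed 24 h later at 0.01-10 μM (8 concentrations including 0). After 72 h, viability was read as cellular ATP by CellTiter-Glo luminescence, and IC50 values were calculated from the 8-point curves.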

[3] = tested on: Ba/F3 HER2 A775_G776insYVMA; experiment: as above; type: cell-based; conditions: Mus musculus, BaF3, 72 hours
Procedure, shortened: as §4

Chain of EGFR del19 (P00533 other isoform, or with tags, fused parts or gaps del 1-668/del 746-750 limits assumed): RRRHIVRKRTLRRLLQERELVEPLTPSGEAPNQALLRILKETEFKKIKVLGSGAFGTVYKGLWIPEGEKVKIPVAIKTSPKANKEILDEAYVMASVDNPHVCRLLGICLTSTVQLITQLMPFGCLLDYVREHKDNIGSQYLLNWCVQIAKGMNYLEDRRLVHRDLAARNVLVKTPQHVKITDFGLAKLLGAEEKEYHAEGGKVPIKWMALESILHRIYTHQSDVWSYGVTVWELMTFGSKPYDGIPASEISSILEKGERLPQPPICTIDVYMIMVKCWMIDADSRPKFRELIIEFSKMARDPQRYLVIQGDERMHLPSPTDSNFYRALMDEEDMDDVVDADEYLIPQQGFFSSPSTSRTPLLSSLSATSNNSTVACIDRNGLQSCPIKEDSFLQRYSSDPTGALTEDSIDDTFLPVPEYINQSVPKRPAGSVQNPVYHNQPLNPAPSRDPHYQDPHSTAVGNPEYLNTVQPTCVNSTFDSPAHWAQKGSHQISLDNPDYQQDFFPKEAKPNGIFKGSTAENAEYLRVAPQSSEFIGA
Chain of HER2 A775_G776insYVMA (P04626 other isoform, or with tags, fused parts or gaps del 1-675/ins YVMA behind 775 limits assumed): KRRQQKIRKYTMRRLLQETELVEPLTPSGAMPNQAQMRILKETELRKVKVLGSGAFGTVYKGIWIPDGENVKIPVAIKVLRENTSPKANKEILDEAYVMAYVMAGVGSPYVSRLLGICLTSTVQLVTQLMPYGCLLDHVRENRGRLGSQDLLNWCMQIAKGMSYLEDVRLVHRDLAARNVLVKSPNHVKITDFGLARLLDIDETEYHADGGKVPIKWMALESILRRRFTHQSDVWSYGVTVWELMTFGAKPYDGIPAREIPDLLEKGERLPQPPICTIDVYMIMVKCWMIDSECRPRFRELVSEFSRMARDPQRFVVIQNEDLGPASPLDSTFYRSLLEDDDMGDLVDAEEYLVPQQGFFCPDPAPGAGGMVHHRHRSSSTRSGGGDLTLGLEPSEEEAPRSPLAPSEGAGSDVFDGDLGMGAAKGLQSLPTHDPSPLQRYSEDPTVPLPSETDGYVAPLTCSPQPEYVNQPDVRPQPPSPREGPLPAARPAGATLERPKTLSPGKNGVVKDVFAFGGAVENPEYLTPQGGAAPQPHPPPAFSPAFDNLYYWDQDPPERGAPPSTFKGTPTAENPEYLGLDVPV
Chain of EGFR A763_Y764insFHEA (P00533 other isoform, or with tags, fused parts or gaps del 1-694/ins FHEA behind 763 limits assumed): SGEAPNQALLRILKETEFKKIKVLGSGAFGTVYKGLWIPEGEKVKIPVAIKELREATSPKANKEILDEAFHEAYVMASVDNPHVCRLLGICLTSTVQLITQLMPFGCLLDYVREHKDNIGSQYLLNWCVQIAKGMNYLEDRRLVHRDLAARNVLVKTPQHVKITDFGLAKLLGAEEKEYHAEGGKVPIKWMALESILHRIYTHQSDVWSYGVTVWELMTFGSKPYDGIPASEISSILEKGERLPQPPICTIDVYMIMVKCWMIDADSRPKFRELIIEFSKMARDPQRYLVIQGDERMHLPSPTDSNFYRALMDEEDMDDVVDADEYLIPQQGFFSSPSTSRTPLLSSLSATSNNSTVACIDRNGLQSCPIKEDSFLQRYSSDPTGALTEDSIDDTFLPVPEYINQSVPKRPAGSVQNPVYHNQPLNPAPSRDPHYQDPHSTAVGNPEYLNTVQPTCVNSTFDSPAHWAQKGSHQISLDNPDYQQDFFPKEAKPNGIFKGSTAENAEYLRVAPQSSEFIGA

IC50 (EGFR del19)	IC50 (EGFR A763_Y764insFHEA)	IC50 [1]	IC50 [2]	IC50 (HER2 A775_G776insYVMA)	IC50 (Ba/F3 HER2 G776delinsVC)	IC50 [3]	SMILES
< 1 nM	3 nM	> 100 nM	> 100 nM	27 nM	10 to 30 nM	> 100 nM	C=CC(=O)Nc1cc(Nc2ncc(Cl)c(Nc3ccccc3NS(C)(=O)=O)n2)c(OC)cc1N(C)CCNC(C)C [Example 24, N-(5-((5-chloro-4-((2-(methylsulfonamido)phenyl)amino)pyrimidin-2-yl)amino)-2-((2-(isopropylamino)ethyl)(methyl)amino)-4-methoxyphenyl)acrylamide]
< 1 nM	< 1 nM	> 100 nM	> 100 nM	6 nM	> 100 nM	> 100 nM	C=CC(=O)Nc1cc(Nc2ncc(Cl)c(Nc3ccccc3NS(C)(=O)=O)n2)c(OC)cc1N(C)CCNC [Example 25, N-(5-((5-chloro-4-((2-(methylsulfonamido)phenyl)amino)pyrimidin-2-yl)amino)-4-methoxy-2-(methyl(2-(methylamino)ethyl)amino)phenyl)acrylamide]
< 1 nM	< 1 nM	10 to 30 nM	10 to 30 nM	5 nM	10 to 30 nM	50 to 100 nM	C=CC(=O)Nc1cc(Nc2ncc(Cl)c(Nc3ccccc3N(C)S(C)(=O)=O)n2)c(OC)cc1N(C)CCN(C)C [Example 29, N-(5-((5-chloro-4-((2-(N-methylmethylsulfonamido)phenyl)amino)pyrimidin-2-yl)amino)-2-((2-(dimethylamino)ethyl)(methyl)amino)-4-methoxyphenyl)acrylamide]
< 1 nM	< 1 nM	30 to 50 nM	< 10 nM	0.3 nM	< 10 nM	< 10 nM	C=CC(=O)Nc1cc(Nc2ncc(Cl)c(Nc3ccccc3N(CC)S(C)(=O)=O)n2)c(OC)cc1N(C)CCN(C)C [Example 31, N-(5-((5-chloro-4-((2-(N-ethylmethylsulfonamido)phenyl)amino)pyrimidin-2-yl)amino)-2-((2-(dimethylamino)ethyl)(methyl)amino)-4-methoxyphenyl)acrylamide]
< 1 nM	1 nM	30 to 50 nM	30 to 50 nM	8 nM	< 10 nM	30 to 50 nM	C=CC(=O)Nc1cc(Nc2ncc(Cl)c(Nc3ccccc3N(C(C)C)S(C)(=O)=O)n2)c(OC)cc1N(C)CCN(C)C [Example 32, N-(5-((5-chloro-4-((2-(N-isopropylmethylsulfonamido)phenyl)amino)pyrimidin-2-yl)amino)-2-((2-(dimethylamino)ethyl)(methyl)amino)-4-methoxyphenyl)acrylamide]
< 1 nM	1 nM	10 to 30 nM	10 to 30 nM	10 nM	10 to 30 nM	50 to 100 nM	C=CC(=O)Nc1cc(Nc2ncc(Cl)c(Nc3cccc(C)c3NS(C)(=O)=O)n2)c(OC)cc1N(C)CCN(C)C [Example 36, N-(5-((5-chloro-4-((3-methyl-2-(methylsulfonamido)phenyl)amino)pyrimidin-2-yl)amino)-2-((2-(dimethylamino)ethyl)(methyl)amino)-4-methoxyphenyl)acrylamide]
< 1 nM	1 nM	30 to 50 nM	30 to 50 nM	4 nM	< 10 nM	30 to 50 nM	C=CC(=O)Nc1cc(Nc2ncc(Cl)c(Nc3cccc(CC)c3NS(C)(=O)=O)n2)c(OC)cc1N(C)CCN(C)C [Example 40, N-(5-((5-chloro-4-((3-ethyl-2-(methylsulfonamido)phenyl)amino)pyrimidin-2-yl)amino)-2-((2-(dimethylamino)ethyl)(methyl)amino)-4-methoxyphenyl)acrylamide]

More lines, now with the values behind:

SMILES	IC50 (EGFR del19)	IC50 (EGFR A763_Y764insFHEA)	IC50 [1]	IC50 [2]	IC50 (HER2 A775_G776insYVMA)	IC50 (Ba/F3 HER2 G776delinsVC)	IC50 [3]
C=CC(=O)Nc1cc(Nc2ncc(Cl)c(Nc3ccccc3N(C)S(=O)(=O)CC)n2)c(OC)cc1N(C)CCN(C)C [Example 30, N-(5-((5-chloro-4-((2-(N-methylethylsulfonamido)phenyl)amino)pyrimidin-2-yl)amino)-2-((2-(dimethylamino)ethyl)(methyl)amino)-4-methoxyphenyl)acrylamide]	< 1 nM	< 1 nM	30 to 50 nM	< 10 nM	4 nM	< 10 nM	30 to 50 nM
C=CC(=O)Nc1cc(Nc2ncc(Cl)c(Nc3ccccc3N(CC)S(=O)(=O)CC)n2)c(OC)cc1N(C)CCN(C)C [Example 33, N-(5-((5-chloro-4-((2-(N-ethylethylsulfonamido)phenyl)amino)pyrimidin-2-yl)amino)-2-((2-(dimethylamino)ethyl)(methyl)amino)-4-methoxyphenyl)acrylamide]	< 1 nM	< 1 nM	30 to 50 nM	< 10 nM	7 nM	< 10 nM	30 to 50 nM
C=CC(=O)Nc1cc(Nc2ncc(Cl)c(Nc3cccc(Cl)c3N(C)S(C)(=O)=O)n2)c(OC)cc1N(C)CCN(C)C [Example 35, N-(5-((5-chloro-4-((3-chloro-2-(N-methylmethylsulfonamido)phenyl)amino)pyrimidin-2-yl)amino)-2-((2-(dimethylamino)ethyl)(methyl)amino)-4-methoxyphenyl)acrylamide]	< 1 nM	3 nM	30 to 50 nM	30 to 50 nM	27 nM	< 10 nM	50 to 100 nM
C=CC(=O)Nc1cc(Nc2ncc(Cl)c(Nc3cccc(C(C)C)c3N(C)S(C)(=O)=O)n2)c(OC)cc1N(C)CCN(C)C [Example 37, N-(5-((5-chloro-4-((3-isopropyl-2-(N-methylmethylsulfonamido)phenyl)amino)pyrimidin-2-yl)amino)-2-((2-(dimethylamino)ethyl)(methyl)amino)-4-methoxyphenyl)acrylamide]	< 1 nM	2 nM	50 to 100 nM	50 to 100 nM	26 nM	30 to 50 nM	50 to 100 nM
C=CC(=O)Nc1cc(Nc2ncc(Cl)c(Nc3cccc(C)c3N(C)S(C)(=O)=O)n2)c(OC)cc1N(C)CCN(C)C [Example 38, N-(5-((5-chloro-4-((3-methyl-2-(N-methylmethylsulfonamido)phenyl)amino)pyrimidin-2-yl)amino)-2-((2-(dimethylamino)ethyl)(methyl)amino)-4-methoxyphenyl)acrylamide]	< 1 nM	2 nM	30 to 50 nM	30 to 50 nM	14 nM	< 10 nM	30 to 50 nM
C=CC(=O)Nc1cc(Nc2ncc(Cl)c(Nc3cccc(C)c3N(CC)S(C)(=O)=O)n2)c(OC)cc1N(C)CCN(C)C [Example 39, N-(5-((5-chloro-4-((2-(N-ethylmethylsulfonamido)-3-methylphenyl)amino)pyrimidin-2-yl)amino)-2-((2-(dimethylamino)ethyl)(methyl)amino)-4-methoxyphenyl)acrylamide]	< 1 nM	< 1 nM	30 to 50 nM	< 10 nM	8 nM	< 10 nM	30 to 50 nM
